Results from patent publication US20030166202A1, “P450 Monooxygenases of the cyp79 family” (priority 2000, published 2003).

T1: CYP79A2 (Arabidopsis thaliana, UniProt Q9FLC8)
T1 sequence (Q9FLC8 7-529 limits assumed): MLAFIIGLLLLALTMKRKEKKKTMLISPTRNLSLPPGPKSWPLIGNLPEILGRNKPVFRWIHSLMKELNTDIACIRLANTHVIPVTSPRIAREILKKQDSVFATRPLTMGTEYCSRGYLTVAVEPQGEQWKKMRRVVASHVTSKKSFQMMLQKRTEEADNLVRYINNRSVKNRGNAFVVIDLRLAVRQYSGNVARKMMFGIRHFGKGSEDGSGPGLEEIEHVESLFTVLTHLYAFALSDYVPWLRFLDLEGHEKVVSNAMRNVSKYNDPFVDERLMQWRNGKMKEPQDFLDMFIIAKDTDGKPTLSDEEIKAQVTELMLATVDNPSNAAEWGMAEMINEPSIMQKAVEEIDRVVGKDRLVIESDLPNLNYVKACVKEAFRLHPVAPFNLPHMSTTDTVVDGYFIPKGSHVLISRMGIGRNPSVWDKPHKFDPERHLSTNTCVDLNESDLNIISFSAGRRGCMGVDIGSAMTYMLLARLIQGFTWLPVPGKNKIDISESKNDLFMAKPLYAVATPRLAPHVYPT

T2: CYP79B2 (Arabidopsis thaliana, UniProt O81346)
T2 sequence (O81346 1-541): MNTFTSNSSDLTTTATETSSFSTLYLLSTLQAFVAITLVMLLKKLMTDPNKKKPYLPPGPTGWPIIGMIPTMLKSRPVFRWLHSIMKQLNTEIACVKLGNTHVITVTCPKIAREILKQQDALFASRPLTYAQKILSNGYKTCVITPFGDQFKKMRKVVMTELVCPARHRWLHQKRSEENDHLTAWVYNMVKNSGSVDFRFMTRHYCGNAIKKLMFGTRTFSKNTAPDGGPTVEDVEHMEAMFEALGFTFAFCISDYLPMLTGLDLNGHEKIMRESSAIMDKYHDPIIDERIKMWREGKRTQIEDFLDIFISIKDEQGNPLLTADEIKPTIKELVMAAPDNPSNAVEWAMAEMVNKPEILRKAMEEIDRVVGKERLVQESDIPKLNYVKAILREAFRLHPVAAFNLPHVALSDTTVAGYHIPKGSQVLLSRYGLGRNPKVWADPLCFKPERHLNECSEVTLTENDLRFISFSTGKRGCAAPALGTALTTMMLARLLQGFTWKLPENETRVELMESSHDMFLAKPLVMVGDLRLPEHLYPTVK


Tests used:
CYP79A2 = target: T1, CYP79A2; test: CYP79A2 activity in E. coli spheroplasts reconstituted with NADPH:cytochrome P450 oxidoreductase
CYP79B2 = target: T2, CYP79B2; test: CYP79B2 activity in E. coli spheroplasts reconstituted with NADPH:cytochrome P450 reductase
Protocol: The activity of CYP79B2 is measured by reconstituting spheroplasts from E. coli expressing CYP79B2 with purified NADPH:cytochrome P450 reductase from Sorghum bicolor (L.) Moench. […] The reaction is incubated at 34° C. for 30 minutes, extracted two times with ethyl acetate and the ethyl acetate phase is analyzed by TLC using toluen:ethyl acetate 5:1 as eluent. Radiolabelled bands are visualized on a Storm 840 phosphorimager (Molecular Dynamics) and quantified with ImageQuant analysis software (Molecular Dynamics). Substrate specificity is investigated by substituting the ^14C-labelled tryptophan with ^14C-labelled tyrosine or phenylalanine. GC-MS is employed to verify the structure of the compound produced from tryptophan by recombinant CYP79B2. A 450 μl reaction mixture as described above containing 2 mM unlabelled tryptophan is incubated at 34° C. for 2 hours. The reaction mixture is extracted twice with 300 μl CHCl3 and lyophilized until dryness. GC-MS is performed with an HP5890 Series II gas chromatograph coupled to a Jeol JMS-AX505W mass spectrometer. Splitless injection on an SGE column (BPX5, 25 mm×0.25 mm, 0.25 μm film thickness) and a head pressure of 100 kPa are used.
Single colonies are grown overnight at 37° C. in LB medium containing 100 μg/ml ampicillin. 1 ml of the overnight culture is used to inoculate 75 ml TB medium containing 100 μg/ml ampicillin, 75 μg/ml δ-aminolevulinic acid, 1 mM thiamine and 1 mM IPTG. The TB cultures are grown for 44 hours at 125 rpm and 28° C.

[1] = Non-enzymatic conversion of tryptophan under oxidative conditions; conditions: 100 mM H2O2, 1 mM MnCl2, 800 μM 2,4-dichlorophenol in 50 mM Tricine buffer, pH 8.0, no enzyme
CYP79F1 = CYP79F1 (Arabidopsis thaliana, UniProt Q949U1, M2A); conditions: E. coli C43(DE3) spheroplasts, GC-MS or TLC
Protocol: In a typical enzyme assay, 5 μl spheroplasts and 4 μl NADPH:cytochrome P450 reductase (equivalent to 0.04 units defined as 1 μmol cytochrome c/min) are incubated with substrate in buffer containing 30 mM KPi, pH 7.5, 3 mM NADPH, 3 mM reduced glutathione, 0.042% Tween 80, 1 mg ml^−1 L-α-dilauroylphosphatidylcholine in a total volume of 30 μl. Reaction mixtures containing spheroplasts of E. coli C43(DE3) transformed with empty vector are used as controls in all assays. 3.3 μM L-[U-^14C]phenylalanine (453 mCi/mmol; Pharmacia), 3.7 μM L-[U-^14C]tyrosine (449 mCi/mmol; Pharmacia), 0.1 mM L-[methyl-^14C]methionine (56 mCi/mmol; Pharmacia), and 24 μM L-[side chain-3-^14C]tryptophan (56.5 mCi/mmol; NEN) are tested as potential substrates. After incubation at 28° C. for 1 hour, half of the reaction mixture is analyzed by TLC on Silica Gel 60 F254 sheets (Merck) using toluene/ethyl acetate 5:1 (v/v) as eluent. Radiolabelled bands are visualized and quantified using a STORM 840 phosphoimager (Pharmacia). For GC-MS analysis, 450 μl reaction mixture containing 3.3 mM L-methionine (Sigma), 3.3 mM DL-dihomomethionine or 3.3 mM DL-trihomomethionine, respectively, are incubated for 4 hours at 25° C. and extracted with a total volume of 600 μl CHCl3. The organic phase is collected, evaporated, and the residue is dissolved in 15 μl CHCl3 and analyzed by GC-MS. […] An SGE column (BPX5, 25 m×0.25 mm, 0.25 μm film thickness) is used (heat pressure 100 kPa, splitless injection). The oven temperature program is as follows: 80° C. for 3 minutes, 80° C. to 180° C. at 5° C. min^−1, 180° C. to 300° C. at 20° C. min^−1, and 300° C. for 10 min. The ion source is run in EI mode (70 eV) at 200° C. […] DL-dihomomethionine, DL-trihomomethionine, 5-methylthiopentanaldoxime and 6-methylthiohexanaldoxime are synthesized as described (Dawson et al, J. Biol. Chem. 268: 27154-27159, 1993) and authenticated by NMR spectroscopy.

[2] = substrate: N[C@@H](Cc1c[nH]c2ccccc12)C(=O)O; test: purified protein, by the assay type; conditions: other: native CYP79B2 construct; pH 7.9

CYP79F1, sequence (Q949U1 whole entry M2A): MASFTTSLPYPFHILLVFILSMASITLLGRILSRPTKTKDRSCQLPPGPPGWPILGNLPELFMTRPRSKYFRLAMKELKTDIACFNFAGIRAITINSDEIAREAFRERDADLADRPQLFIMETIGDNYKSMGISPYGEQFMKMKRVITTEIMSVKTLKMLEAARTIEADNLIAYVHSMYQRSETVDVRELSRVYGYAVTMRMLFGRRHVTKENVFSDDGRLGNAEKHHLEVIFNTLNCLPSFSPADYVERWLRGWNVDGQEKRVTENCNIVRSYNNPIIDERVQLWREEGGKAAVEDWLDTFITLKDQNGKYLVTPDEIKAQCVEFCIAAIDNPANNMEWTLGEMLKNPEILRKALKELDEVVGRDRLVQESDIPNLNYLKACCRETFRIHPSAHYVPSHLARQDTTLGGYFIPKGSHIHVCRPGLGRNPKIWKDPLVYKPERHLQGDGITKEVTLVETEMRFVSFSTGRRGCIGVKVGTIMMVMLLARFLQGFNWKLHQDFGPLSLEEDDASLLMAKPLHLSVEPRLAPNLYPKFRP

| Molecule | production of the respective aldoxime by CYP79A2 (CYP79A2) | Vmax (CYP79B2; native CYP79B2 construct) [pmol/h/μl spheroplast] | oxime production by CYP79B2 (CYP79B2; radiolabelled amino acid, TLC) | conversion rate to compound co-migrating with IAOX relative to CYP79B2 [1] | formation of the corresponding aldoxime by CYP79F1 (CYP79F1) | Km [2] [µM] |
| --- | --- | --- | --- | --- | --- | --- |
| N[C@@H](Cc1c[nH]c2ccccc12)C(=O)O [L-tryptophan] | does not result in production of detectable amounts of the respective aldoximes | 97.2 | production of a strong band that co-migrates with authentic IAOX standard | approximately 0.7% | did not result in the formation of detectable amounts of the corresponding aldoximes | – |
| CYP79B2 (Arabidopsis thaliana) (protein) MNTFTSNSSDLTTTATETSSFSTLYLLSTLQAFVAITLVMLLKKLMTDPNKKKPYLPPGPTGWPIIGMIPTMLKSRPVFRWLHSIMKQLNTEIACVKLGNTHVITVTCPKIAREILKQQDALFASRPLTYAQKILSNGYKTCVITPFGDQFKKMRKVVMTELVCPARHRWLHQKRSEENDHLTAWVYNMVKNSGSVDFRFMTRHYCGNAIKKLMFGTRTFSKNTAPDGGPTVEDVEHMEAMFEALGFTFAFCISDYLPMLTGLDLNGHEKIMRESSAIMDKYHDPIIDERIKMWREGKRTQIEDFLDIFISIKDEQGNPLLTADEIKPTIKELVMAAPDNPSNAVEWAMAEMVNKPEILRKAMEEIDRVVGKERLVQESDIPKLNYVKAILREAFRLHPVAAFNLPHVALSDTTVAGYHIPKGSQVLLSRYGLGRNPKVWADPLCFKPERHLNECSEVTLTENDLRFISFSTGKRGCAAPALGTALTTMMLARLLQGFTWKLPENETRVELMESSHDMFLAKPLVMVGDLRLPEHLYPTVK | – | – | – | – | – | 21 |
